Test results published in ChEMBL document CHEMBL1201862, “PubChem BioAssay data set” (2004).
Blank lines part the entries; values can stand above or below the molecule they belong to. Active and inactive are the calls of the source.

Key:
Assay type in all cases: functional
[1] = biological target: Eukaryotic elongation factor 2 kinase (Homo sapiens, UniProt O00418)
[2] = biological target: MAP kinase-activated protein kinase 3 (Homo sapiens, UniProt Q16644);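 also: value comes from a kinome-wide profiling panel in which MAPKAPK3 is one of the panel members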
Chain of MAP kinase-activated protein kinase 3 (Q16644 whole entry): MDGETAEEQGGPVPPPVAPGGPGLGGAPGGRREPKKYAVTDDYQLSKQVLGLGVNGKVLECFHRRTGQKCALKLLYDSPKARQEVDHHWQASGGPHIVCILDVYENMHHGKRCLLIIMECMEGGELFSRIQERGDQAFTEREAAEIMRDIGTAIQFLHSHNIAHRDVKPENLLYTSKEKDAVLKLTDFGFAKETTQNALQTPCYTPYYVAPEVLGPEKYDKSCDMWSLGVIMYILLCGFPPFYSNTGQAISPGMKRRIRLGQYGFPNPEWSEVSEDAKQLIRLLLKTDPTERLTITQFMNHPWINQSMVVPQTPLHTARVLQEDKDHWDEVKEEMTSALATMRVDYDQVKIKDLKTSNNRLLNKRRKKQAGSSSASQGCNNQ

[3] = biological target: MAP kinase-activated protein kinase 2 (Homo sapiens, UniProt P49137);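 also: measured as one member of a kinome-wide kinase panel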
Chain of MAP kinase-activated protein kinase 2 (P49137 whole entry, canonical isoform): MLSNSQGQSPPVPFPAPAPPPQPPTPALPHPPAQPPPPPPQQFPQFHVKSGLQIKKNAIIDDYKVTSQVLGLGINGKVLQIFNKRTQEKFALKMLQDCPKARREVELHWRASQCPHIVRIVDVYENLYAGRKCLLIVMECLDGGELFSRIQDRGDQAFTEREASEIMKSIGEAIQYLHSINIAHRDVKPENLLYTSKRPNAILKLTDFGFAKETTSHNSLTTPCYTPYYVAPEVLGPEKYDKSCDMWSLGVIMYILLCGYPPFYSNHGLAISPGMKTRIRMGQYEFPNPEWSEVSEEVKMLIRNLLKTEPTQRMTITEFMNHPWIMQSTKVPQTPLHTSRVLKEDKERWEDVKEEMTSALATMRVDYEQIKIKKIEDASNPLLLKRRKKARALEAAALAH

[4] = biological target: Phosphorylase b kinase gamma catalytic chain, liver/testis isoform (Homo sapiens, UniProt P15735);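 also: PHKG2 measured as one member of a kinome-wide kinase panel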
Chain of Phosphorylase b kinase gamma catalytic chain, liver/testis isoform (P15735 whole entry, canonical isoform): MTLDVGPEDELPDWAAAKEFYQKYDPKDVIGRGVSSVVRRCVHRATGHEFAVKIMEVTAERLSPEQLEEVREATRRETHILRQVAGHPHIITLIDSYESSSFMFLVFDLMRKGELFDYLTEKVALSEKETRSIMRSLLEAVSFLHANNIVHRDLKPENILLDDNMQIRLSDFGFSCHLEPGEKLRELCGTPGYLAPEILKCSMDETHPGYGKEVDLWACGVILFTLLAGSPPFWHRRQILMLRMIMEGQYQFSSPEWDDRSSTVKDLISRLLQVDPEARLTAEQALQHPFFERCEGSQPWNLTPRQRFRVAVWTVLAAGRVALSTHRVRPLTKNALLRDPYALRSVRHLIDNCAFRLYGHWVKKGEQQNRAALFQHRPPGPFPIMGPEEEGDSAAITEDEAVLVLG

[5] = biological target: Ribosomal protein S6 kinase beta-1 (Homo sapiens, UniProt P23443);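 also: measured as one member of a kinome-wide profiling panel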
Chain of Ribosomal protein S6 kinase beta-1 (P23443 whole entry): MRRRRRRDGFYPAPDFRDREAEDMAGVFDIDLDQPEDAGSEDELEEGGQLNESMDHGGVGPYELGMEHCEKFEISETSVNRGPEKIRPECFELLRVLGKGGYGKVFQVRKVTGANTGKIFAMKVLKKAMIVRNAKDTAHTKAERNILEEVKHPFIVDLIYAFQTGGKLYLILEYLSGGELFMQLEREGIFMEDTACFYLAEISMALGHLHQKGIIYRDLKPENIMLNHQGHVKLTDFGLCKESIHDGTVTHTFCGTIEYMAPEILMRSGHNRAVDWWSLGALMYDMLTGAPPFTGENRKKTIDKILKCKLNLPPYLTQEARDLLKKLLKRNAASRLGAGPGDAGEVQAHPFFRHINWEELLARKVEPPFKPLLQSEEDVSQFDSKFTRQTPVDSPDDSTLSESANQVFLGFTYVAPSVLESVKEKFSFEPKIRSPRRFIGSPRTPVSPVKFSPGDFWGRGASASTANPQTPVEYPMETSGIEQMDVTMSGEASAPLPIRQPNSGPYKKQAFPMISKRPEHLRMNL

[6] = biological target: Protein kinase C delta type (Homo sapiens, UniProt Q05655)
Chain of Protein kinase C delta type (Q05655 whole entry): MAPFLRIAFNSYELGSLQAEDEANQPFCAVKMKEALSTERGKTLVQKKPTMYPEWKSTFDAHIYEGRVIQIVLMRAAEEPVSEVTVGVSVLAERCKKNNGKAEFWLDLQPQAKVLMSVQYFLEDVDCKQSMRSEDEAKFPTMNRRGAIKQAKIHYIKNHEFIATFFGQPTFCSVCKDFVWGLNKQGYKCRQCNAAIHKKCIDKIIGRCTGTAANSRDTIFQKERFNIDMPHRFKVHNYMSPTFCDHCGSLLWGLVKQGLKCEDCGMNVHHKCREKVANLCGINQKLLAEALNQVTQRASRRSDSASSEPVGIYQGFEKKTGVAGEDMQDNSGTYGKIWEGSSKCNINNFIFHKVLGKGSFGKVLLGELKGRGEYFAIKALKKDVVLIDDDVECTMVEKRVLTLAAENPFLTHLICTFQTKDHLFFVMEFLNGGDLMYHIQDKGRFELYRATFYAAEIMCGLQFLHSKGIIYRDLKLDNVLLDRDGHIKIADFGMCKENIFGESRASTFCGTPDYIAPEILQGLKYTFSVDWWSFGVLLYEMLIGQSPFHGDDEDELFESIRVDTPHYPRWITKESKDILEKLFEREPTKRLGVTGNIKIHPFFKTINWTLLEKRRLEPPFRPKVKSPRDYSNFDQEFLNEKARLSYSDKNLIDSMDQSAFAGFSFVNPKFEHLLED

Insulin receptor = Insulin receptor (Homo sapiens, UniProt P06213);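 also: insulin receptor kinase tested as one member of a kinome-wide kinase panel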
Chain of Insulin receptor (P06213 28-758 limits assumed): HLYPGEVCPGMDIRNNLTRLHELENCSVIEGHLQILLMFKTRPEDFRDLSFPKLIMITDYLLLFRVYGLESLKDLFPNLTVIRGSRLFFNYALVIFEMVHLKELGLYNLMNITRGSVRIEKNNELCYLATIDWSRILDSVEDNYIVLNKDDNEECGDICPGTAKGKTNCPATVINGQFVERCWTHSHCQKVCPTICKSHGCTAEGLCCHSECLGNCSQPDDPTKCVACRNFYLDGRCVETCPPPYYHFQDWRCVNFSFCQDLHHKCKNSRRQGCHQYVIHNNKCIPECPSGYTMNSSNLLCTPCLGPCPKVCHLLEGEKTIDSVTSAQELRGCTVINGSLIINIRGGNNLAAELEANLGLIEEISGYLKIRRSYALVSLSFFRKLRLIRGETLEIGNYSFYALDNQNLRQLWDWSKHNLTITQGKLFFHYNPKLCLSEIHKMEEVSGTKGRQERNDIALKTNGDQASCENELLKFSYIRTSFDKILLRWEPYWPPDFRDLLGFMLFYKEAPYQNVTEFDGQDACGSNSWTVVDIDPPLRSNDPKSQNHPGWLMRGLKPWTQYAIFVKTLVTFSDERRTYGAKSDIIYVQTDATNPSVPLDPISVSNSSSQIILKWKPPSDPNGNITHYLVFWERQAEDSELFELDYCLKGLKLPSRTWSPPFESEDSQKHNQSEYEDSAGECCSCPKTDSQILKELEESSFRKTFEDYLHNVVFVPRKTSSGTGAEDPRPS
Chain of Insulin receptor (P06213 763-1382 limits assumed): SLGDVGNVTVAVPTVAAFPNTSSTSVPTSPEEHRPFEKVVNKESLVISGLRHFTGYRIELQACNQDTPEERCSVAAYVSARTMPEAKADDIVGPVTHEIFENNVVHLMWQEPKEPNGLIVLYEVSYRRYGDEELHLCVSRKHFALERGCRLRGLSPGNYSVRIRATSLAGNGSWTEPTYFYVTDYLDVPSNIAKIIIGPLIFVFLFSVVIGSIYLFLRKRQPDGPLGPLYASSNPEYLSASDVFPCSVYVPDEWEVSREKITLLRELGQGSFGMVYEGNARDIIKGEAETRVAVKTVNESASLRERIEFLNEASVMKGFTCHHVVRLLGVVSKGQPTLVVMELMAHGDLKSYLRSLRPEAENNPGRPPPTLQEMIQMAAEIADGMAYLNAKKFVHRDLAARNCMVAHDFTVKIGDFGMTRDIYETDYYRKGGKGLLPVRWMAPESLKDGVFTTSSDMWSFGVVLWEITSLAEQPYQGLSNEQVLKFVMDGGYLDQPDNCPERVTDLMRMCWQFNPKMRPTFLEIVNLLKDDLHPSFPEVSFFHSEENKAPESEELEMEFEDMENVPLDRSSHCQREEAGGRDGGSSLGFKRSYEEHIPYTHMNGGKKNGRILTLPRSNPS

[7] = biological target: T1, Apoptotic protease-activating factor 1 (Homo sapiens, UniProt O14727)
T1 sequence (O14727 whole entry): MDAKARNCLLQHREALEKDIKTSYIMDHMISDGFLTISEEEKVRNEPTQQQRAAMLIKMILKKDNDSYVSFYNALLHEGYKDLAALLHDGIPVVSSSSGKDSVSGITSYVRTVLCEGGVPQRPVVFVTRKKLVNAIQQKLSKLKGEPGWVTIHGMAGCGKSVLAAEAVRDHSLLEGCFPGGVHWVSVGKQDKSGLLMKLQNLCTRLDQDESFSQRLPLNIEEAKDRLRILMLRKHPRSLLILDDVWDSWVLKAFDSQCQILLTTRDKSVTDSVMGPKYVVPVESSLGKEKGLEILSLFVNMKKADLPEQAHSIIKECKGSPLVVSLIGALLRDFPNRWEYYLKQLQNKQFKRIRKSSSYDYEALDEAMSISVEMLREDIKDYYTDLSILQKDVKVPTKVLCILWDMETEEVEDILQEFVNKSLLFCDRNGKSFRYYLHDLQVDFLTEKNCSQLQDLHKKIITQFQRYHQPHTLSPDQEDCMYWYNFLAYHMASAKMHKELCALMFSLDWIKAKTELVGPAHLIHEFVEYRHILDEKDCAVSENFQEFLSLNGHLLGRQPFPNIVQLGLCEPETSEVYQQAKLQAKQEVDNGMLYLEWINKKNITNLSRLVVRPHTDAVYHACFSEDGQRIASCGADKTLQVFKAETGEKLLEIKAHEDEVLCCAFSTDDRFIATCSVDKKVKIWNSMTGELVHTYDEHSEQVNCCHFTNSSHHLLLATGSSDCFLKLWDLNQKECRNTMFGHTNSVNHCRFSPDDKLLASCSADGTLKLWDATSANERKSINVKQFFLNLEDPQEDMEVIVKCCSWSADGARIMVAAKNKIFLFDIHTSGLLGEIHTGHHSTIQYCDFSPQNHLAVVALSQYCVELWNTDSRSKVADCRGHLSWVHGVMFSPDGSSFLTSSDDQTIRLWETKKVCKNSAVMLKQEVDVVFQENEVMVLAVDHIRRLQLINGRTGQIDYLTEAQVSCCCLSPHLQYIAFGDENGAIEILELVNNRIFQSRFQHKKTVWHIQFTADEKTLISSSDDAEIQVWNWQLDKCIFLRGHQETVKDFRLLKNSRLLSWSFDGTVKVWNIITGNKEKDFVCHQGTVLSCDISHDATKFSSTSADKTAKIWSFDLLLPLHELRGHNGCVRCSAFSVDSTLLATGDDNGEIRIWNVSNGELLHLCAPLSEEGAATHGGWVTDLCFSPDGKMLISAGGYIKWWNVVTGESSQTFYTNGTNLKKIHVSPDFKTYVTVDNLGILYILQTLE

[8] = biological target: T2, Sentrin-specific protease 8 (Homo sapiens, UniProt Q96LD8)
T2 sequence (Q96LD8 whole entry): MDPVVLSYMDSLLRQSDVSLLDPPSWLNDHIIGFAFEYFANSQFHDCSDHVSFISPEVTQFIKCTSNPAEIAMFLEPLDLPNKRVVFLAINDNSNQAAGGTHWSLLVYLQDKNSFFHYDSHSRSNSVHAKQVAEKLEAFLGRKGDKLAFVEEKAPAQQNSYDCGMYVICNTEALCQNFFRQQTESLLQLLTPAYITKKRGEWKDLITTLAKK

Caspase-3 = biological target: T3, Caspase-3 (Homo sapiens, UniProt P42574);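 also: Dose-response selectivity test against caspase-3 for candidate inhibitors of sentrin-specific proteases (SENPs)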
T3 sequence (P42574 whole entry): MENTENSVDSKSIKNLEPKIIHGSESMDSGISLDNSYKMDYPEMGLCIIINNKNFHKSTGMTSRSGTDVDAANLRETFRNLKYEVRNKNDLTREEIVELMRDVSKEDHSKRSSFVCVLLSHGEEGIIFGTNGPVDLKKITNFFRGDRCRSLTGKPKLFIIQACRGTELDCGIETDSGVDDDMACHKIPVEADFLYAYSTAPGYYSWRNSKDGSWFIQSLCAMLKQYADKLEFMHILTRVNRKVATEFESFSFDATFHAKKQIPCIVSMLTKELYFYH

[9] = Luminescence Cell-Based Dose Confirmation HTS to Identify Activators of 5'UTR Stem-Loop Driven Alpha-Synuclein mRNA Translation in H4 Neuroglioblastoma Cells. [Related pubchem assays: 1829 (Project Summary), 1814 (Primary HTS)]

Chain of Eukaryotic elongation factor 2 kinase (O00418 whole entry): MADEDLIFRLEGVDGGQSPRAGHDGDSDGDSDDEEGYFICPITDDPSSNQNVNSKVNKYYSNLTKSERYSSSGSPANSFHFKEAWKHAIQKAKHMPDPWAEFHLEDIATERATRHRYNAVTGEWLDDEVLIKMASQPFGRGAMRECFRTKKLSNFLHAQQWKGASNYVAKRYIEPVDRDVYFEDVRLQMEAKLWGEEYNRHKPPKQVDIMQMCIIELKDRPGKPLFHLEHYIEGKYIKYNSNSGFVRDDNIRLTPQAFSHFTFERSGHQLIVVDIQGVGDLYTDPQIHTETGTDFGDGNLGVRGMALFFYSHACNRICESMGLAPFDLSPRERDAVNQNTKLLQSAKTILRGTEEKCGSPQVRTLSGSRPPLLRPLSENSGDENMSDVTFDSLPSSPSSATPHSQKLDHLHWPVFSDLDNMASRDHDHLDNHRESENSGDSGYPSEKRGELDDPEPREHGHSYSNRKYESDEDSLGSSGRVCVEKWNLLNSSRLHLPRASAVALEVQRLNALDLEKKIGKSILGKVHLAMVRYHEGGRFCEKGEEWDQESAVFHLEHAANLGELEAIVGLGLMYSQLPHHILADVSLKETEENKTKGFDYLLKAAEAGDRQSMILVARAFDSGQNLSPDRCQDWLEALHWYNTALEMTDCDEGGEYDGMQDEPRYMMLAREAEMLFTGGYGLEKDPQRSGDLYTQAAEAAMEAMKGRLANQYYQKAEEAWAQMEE

Compound: COC(C(=O)N1Cc2[nH]nc(NC(=O)c3ccc(N4CCN(C)CC4)cc3)c2C1)c1ccccc1 (stereo unspecified)
- Ki [1]: > 3.98 µM (inactive)

- Ki [2]: > 10 µM (inactive)
- Ki [3]: 0.794 µM (active)
- Ki [4]: 0.1 µM (active)
- Ki [5]: 0.501 µM (active)
- Ki [6]: 0.00316 µM (active)
- Ki (Insulin receptor): 0.501 µM (active)
Compound: NC1CCC(Nc2nccc(-c3c[nH]c4ncccc34)n2)CC1 (stereo unspecified)

Compound: O=C1C2=[N+]([O-])[C@H]3CCCC[C@H]3[N+]([O-])=C2c2ccccc21
- IC50 [7]: 18.1 µM (active)
- IC50 [8]: 5.98 µM (active)
- IC50 (Caspase-3): 15.4 µM (active)
- EC50 [9]: > 120 µM (not active)
